In patent US20160279135A1, “THERAPIES FOR TREATING MYELOPROLIFERATIVE DISORDERS” (Gilead Sciences, Inc., priority 2013, published 2016):
Where “and” joins values, the source holds several entries; their conditions need not be identical. Equal entries are not always repeated.

Tests used:
clinical = conditions: human, in vivo
Source text: For in vitro or in vivo studies, the effect amount of Compounds A, B, C, D, E, or ruxolinitib may be adjusted according to the experimental condition. Similarly, the effect amount of Compounds D1, D2, D3, D4, D5, D6, D7, D8, D9, E1, E2, E3, E4, E5, E6, E7, E8, E9, or F, may be adjusted according to the experimental condition for in vitro or in vivo studies. For example, compounds may be used in the amount of 0.001, 0.002, 0.003, 0.004, 0.005, 0.006, 0.007, 0.008, 0.009, 0.01, 0.02, 0.03, 0.04, 0.05, 0.06, 0.07, 0.08, 0.09, 0.1, 0.2, 0.3, 0.4, 0.5, 0.6, 0.7, 0.8, 0.9, 1.0, 1.5, 2.0, 2.5, 3.0, 3.5, 4.0, 5.0, 6.0, 7.0, 8.0, 9.0, or 10.0 μM. In some studies, the in vitro doses of the compounds may be calculated to correspond to the clinical doses of the compounds. The calculation may consider various factors, such as protein binding and plasma concentration. […] It is understood that the in vitro doses may differ, depend on the assay condition and other calculation factors, and that the clinical doses may differ depend on the disease indication and the patient condition.
(§1) In this study, PBMCs were isolated from the whole blood from five MF patients receiving chronic ruxolitinib treatment (rux 1-rux 5). The cells were treated with either vehicle, ruxolitinib, and/or Compound B for 2 hours then stimulated with TPO (50 ng/mL) for 10 minutes. Ruxolitinib at the dose of 1 or 20 nM and Compound B at the dose of 45, 200, or 700 nM were used.
Next, Pfeiffer cells were treated with IL6 (0 or 3 ng/mL), Compound A (0, 136, 272, or 695 nM), and/or Compound B (0, 74, 200, or 421 nM) (n=4 per group) for 96 hours. The doses in this assay may correspond to those used in a clinical setting. […] In addition, the in-vitro dose of 136 nM Compound A may correspond to the potential Caverage detected in patients receiving Compound A at 300 mg once a day.

pS6 Ser235/236 = assay: Western blot of S6 phosphorylation in UT-7/TPO cells; format: cell-based; conditions: 2 h, then TPO 50 ng/mL 10 min, vs vehicle
Protocol: (§2) In addition, Compound B was examined for the effects on the PI3K signaling pathway by determining the levels of AKT and S6 phosphorylation with or without TPO activation. Two cell lines, BaF3/MPL and UT-7/TPO sensitive or responsive to TPO activation were used. The cells were starved (i.e. growing on medium having less FBS) in […] FBS/RPMI for two hours before treated with 0.1, 1.0, or 2.0 μM of Compound B or vehicle (0.1% DMSO in RPMI) for 2 hours at 37° C. To examine the TPO-activated phosphorylation, the cells were then treated or activated with 50 ng/mL of human recombinant TPO (Peprotech) for 10 minutes at 37° C. The TPO activation or treatment may reflect the conditions in diseased cells as the PI3K pathway is activated by TPO in myelofibrosis. After treating with compound and/or TPO, the cells were collected, lysed by lysis buffer (Cell Signaling), separated by SDS-PAGE, and analyzed by the Western blot using antibodies specific to p-AKT Ser473 or pS6 Ser235/236 (Cell Signaling). The phosphorylation levels in treated cells were calculated and compared to those of untreated cells (i.e. vehicle as negative control).

p-STAT5 = assay: flow cytometry of p-STAT5 in TPO-stimulated CD34+ cells from MF patients on chronic ruxolitinib (Example 8); format: cell-based, human; conditions: 2 h, then TPO 50 ng/mL, one value per patient, TPO vehicle = 100
Protocol: as §1
(§3) The treated cells were then fixed, permeabilized and stained for FACS analysis using FACSCalibur analyzed using BD FACSDiva software.

p-S6RP = assay: flow cytometry of p-S6RP in TPO-stimulated CD34+ cells from MF patients on chronic ruxolitinib (Example 8); format: cell-based, human; conditions: for percentage of the p-S6RP levels: 2 h, then TPO 50 ng/mL, one value per patient, TPO vehicle = 100
Protocol: as §1, §3

p-AKT Ser473 [1] = assay: Western blot of AKT phosphorylation in BaF3/MPL cells; format: cell-based; conditions: 2 h, then TPO 50 ng/mL 10 min, vs vehicle
Protocol: as §2

p-AKT Ser473 [2] = assay: flow cytometry of AKT phosphorylation in CD34+ progenitor cells from MF patients; format: cell-based, human; conditions: 2.0 μM
Protocol: In this example, PBMCs were isolated from whole blood of myelofibrosis (MF) patients who had not received treatments (i.e. naïve patients) or received ruxolitinib (i.e. rux-treated patients). The cells were treated with 0.02, 0.2, or 2.0 μM of Compound B or vehicle (0.1% DMSO in 0.1% FBS/RPMI) for 2 hours at 37° C. The cells were then fixed, permeabilized, and stained for FACS analysis. Antibodies specific to p-AKT Ser473 and pS6RP Ser235/236 were used to detect AKT phosphorylation (p-AKT) and S6RP phosphorylation (p-S6RP) in CD34^+/CD3^−/CD14^−/CD19/CD66^− (BD Biosciences) gated cells using flow cytometry. The percentage of basal (i.e. untreated with TPO) AKT and S6RP phosphorylation were normalized to vehicle control (i.e. “no TPO” values shown in Table 2). A two-tailed paired t-test (GraphPad Prism) was used to calculate p-values. Values of p<0.05 were considered significant.
Also, PBMC cells were treated with Compound B and with TPO as described above. The percentage of TPO-activated AKT and S6RP phosphorylation were normalized to those of TPO-treated vehicle. […] Also, the inhibition to PI3K signaling was dose-dependent to Compound B.
Similar studies were conducted with PI3K inhibitors Compounds C and D. PBMC from MF patients had received ruxolitinib (rux) and MF patient had received Compound A. The cells were treated with Compounds C or D at 0, 20.0, 200.0, 2000.0 nM for 2 hours at 37° C. Cells were treated with TPO for 10 minutes. The percentage of basal p-AKT and p-S6RP levels were normalized to vehicle control and those of TPO-treated were normalized to TPO-treated vehicle control. The PI3K inhibitors Compounds C and D had the chemical names of (S)-2-(1-((9H-purin-6-yl)amino)ethyl)-6-fluoro-3-phenylquinazolin-4(3H)-one and (S)-2,4-diamino-6-(((5-chloro-8-fluoro-4-oxo-3-(pyridine-3-yl)-3,4-dihydroquinazolin-2-yl)(cyclopropyl)methyl)amino)pyrimidine-5-carbonitrile, respectively.

CC[C@H](Nc1ncnc2[nH]cnc12)c1nc2cccc(F)c2c(=O)n1-c1ccccc1 [Compound B, (S)-2-(1-((9H-purin-6-yl)amino)propyl)-5-fluoro-3-phenylquinazolin-4(3H)-one]
in-vitro dose corresponding to the potential Caverage (clinical): 200 nM | in-vitro dose corresponding to the potential Cmin (clinical): 74 nM | Cmax (clinical; 150 mg): 421 nM | reduced p-S6 levels (pS6 Ser235/236; 0.1 μM): 13% | reduced p-S6 levels (pS6 Ser235/236; 1.0 μM): 28% | reduced p-S6 levels (pS6 Ser235/236; 2.0 μM): 48% | percentage of the p-STAT5 levels (p-STAT5; Compound B 45 nM): 92% (2×) and 85% and 95% and 83% | percentage of the p-STAT5 levels (p-STAT5; Compound B 200 nM): 93% and 83% and 91% and 72% and 90% | percentage of the p-STAT5 levels (p-STAT5; Compound B 700 nM): 88% and 86% and 82% and 106% and 78% | percentage of the p-S6RP levels (p-S6RP; Compound B 45 nM): 82% and 58% and 49% and 74% and 36% | percentage of the p-S6RP levels (p-S6RP; Compound B 200 nM): 62% and 46% and 38% and 63% and 33% | percentage of the p-S6RP levels (p-S6RP; Compound B 700 nM): 46% and 48% and 32% and 55% and 17% | inhibition at 0.045 µM (p-S6RP; Homo sapiens, Compound B 45 nM, TPO-stimulated cells vs vehicle, all five patients, read-out: p-S6RP levels decreased (inhibited) by): 40% | inhibition at 0.2 µM (p-S6RP; Homo sapiens, Compound B 200 nM, TPO-stimulated cells vs vehicle, all five patients, read-out: p-S6RP levels decreased (inhibited) by): 52% | inhibition at 0.7 µM (p-S6RP; Homo sapiens, Compound B 700 nM, TPO-stimulated cells vs vehicle, all five patients, read-out: p-S6RP levels decreased (inhibited) by): 60% | reduced p-AKT levels (p-AKT Ser473 [1]; 0.1 μM): 51% | reduced p-AKT levels (p-AKT Ser473 [1]; 1.0 μM): 64% | normalized percentage of TPO-activated AKT phosphorylation (p-AKT) (p-AKT Ser473 [2]; then TPO, progenitor cells of rux-treated MF patients, one value per patient, TPO-treated vehicle = 100): 40% and 29% and 35% and 16% (2×) | normalized percentage of p-AKT (p-AKT Ser473 [2]; progenitor cells from Compound A-treated MF patients, one value per subject, column 0 = 100): 24% and 55% and 30%
